From publication PMC7004151, “Synthesis and Structure‐Activity Relationships of N‐(4‐Benzamidino)‐Oxazolidinones: Potent and Selective Inhibitors of Kallikrein‐Related Peptidase 6” (Chemmedchem, 2019)

Tests used:
KLK8 = biological target: T1, KLK8 (Homo sapiens, UniProt O60259); experiment: KLK8 enzyme inhibition assay; assay type: biochemical; settings: read-out: KLK8 pIC50 (converted)
T1 construct: purchased 2B scientific
T1 sequence (O60259 33-260): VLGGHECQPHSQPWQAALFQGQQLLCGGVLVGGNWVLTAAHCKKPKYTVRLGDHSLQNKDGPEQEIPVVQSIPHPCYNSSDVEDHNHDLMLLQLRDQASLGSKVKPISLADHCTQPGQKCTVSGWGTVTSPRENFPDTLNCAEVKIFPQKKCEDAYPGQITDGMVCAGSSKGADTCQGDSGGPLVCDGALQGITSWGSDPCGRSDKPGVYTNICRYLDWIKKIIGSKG
Description: Enzyme inhibition assays: All chemicals were purchased from Sigma Aldrich (Gillingham, UK) unless otherwise stated. All experiments were conducted in 384 well black, low volume microplates (Greiner 784076) with a final volume of 20 μL and compounds were dispensed into assay plates using an ECHO 550 acoustic dispenser (Labcyte). KLK6 (5 nM) (prepared as in ref. 21) was incubated with test compounds for 30 min at room temperature in assay buffer (50 mM Tris, pH 7.5, 150 mM NaCl, 1 mM EDTA, 0.05 % tween 20, 0.1 % bovine serum albumin (BSA), 1 mM dithiothreitol (DTT)) before the reaction was started by addition of 20 μM Boc‐Phe‐Ser‐Arg‐AMC substrate (Bachem). Fluorescence intensity was read at ex/em 355/460 following incubation for 2 h in the dark at room temperature.
Assays using KLK7 and KLK8 (2B scientific) were conducted in the same manner as for KLK6 with the following exceptions. Both KLK7 and KLK8 required activation before assaying. KLK7 was combined with an equal volume of 20 μg/ml thermolysin (R&D systems) in activation buffer (50 mM Tris, pH 7.5, 10 mM CaCl2, 150 mM NaCl and 0.05 % Brij‐L23) and incubated at 37 °C for 2 h, the reaction was stopped with the addition of 100 mM EDTA in stop solution (50 mM Tris, 150 mM NaCl, pH 8.5). KLK8 was combined with an equal volume of 0.4 mU/mL lysyl endopeptidase (Alpha laboratories) in activation buffer (50 mM Tris, pH 8.0) and incubated at 37 °C for 30 min. Activated KLK7 (40 nM) and KLK8 (25 nM) were assayed with 40 μM Mca‐RPKPVE‐Nval‐WRK(Dnp)‐NH2 fluorogenic MMP substrate (R&D systems) and 25 μM Boc‐V‐P‐R‐AMC substrate (R&D systems), respectively.

Human trypsin = biological target: T2, Human trypsin (Homo sapiens, UniProt P07477); experiment: Trypsin enzyme inhibition assay; assay type: biochemical; settings: read-out: Trypsin pIC50 (converted)
T2 construct: purchased Polymun Scientific
Description: Human thrombin was purchased from Biopur. Human trypsin was purchased from Polymun Scientific. Human Factor Xa was purchased from Enzo Life Sciences. […] Fluorescence intensity was then read at ex/em 485/535 following incubation for 1 h at room temperature (thrombin and factor Xa) or 20 min (trypsin).

## CC[C@H](NC(=O)[C@H]1CN(c2ccc(C(=N)N)cc2)C(=O)O1)c1cccc2ccccc12 [Compound 32, (5R)‐3‐(4‐carbamimidoylphenyl)‐N‐((S)‐1‐(naphthalen‐1‐yl)propyl)‐2‐oxooxazolidine‐5‐carboxamide]
KLK8
  IC50: 200 nM
Human trypsin
  IC50: 63.1 nM
